Paper PMC7932537, “Quantitative profiling of protease specificity” (PLoS Computational Biology, 2021)

How the values were obtained:
[1] = tested on: MMP-2; assay: Substrate phage display with NGS: relative probability (RP) of P3-P1' tetramer clusters; assay type: biochemical, human; conditions: MMP2;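 also: ratio of tetramer probability after protease selection to that in naive phage library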
[2] = target: T1, MMP-2 (Homo sapiens, UniProt P08253); assay: K(obs) of individual phage substrates (set of 1369); assay type: biochemical; conditions: MMP2
T1 sequence (P08253 110-660): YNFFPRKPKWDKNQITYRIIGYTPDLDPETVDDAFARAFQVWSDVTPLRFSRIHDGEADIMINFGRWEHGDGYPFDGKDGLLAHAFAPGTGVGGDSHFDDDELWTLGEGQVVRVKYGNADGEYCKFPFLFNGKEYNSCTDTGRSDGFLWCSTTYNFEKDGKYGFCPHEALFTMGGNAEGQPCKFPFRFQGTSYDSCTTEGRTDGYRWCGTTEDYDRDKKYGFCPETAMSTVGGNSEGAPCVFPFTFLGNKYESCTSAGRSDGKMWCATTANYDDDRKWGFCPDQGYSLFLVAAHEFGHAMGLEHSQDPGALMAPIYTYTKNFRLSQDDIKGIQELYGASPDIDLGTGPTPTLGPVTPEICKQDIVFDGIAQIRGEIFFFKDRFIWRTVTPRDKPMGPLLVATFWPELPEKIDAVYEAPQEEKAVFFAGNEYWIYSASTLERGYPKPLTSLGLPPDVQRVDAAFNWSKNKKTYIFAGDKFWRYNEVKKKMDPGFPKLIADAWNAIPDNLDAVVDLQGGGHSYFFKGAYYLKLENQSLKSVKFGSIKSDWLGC

[3] = target: MMP-9 (Homo sapiens, UniProt P14780); assay: as above; assay type: biochemical; conditions: MMP9
Chain of MMP-9 (P14780 94-707): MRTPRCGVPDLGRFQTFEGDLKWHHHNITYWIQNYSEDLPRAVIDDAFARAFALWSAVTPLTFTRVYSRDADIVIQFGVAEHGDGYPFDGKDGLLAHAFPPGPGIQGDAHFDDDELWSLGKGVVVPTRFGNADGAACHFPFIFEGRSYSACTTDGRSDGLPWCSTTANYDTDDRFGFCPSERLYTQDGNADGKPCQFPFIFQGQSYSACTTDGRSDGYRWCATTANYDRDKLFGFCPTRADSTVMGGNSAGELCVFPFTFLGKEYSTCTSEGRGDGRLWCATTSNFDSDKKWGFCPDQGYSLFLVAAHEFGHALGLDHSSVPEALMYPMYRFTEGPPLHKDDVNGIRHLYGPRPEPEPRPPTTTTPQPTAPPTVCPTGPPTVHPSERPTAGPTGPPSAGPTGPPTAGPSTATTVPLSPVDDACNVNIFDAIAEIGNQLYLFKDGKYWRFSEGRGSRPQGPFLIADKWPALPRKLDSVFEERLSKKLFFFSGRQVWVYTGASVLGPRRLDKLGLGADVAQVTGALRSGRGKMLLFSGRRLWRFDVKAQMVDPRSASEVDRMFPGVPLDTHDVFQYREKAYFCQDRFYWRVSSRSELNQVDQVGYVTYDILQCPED

[4] = RP of the P3-P1' tetramer contained in the substrate (substrate phage display with NGS)
[5] = individual phage substrates, set of 1369 peptides, cleavage position marked by hyphen in sequence
[6] = individual phage substrates, set of 1369 peptides, hyphen in sequence marks cleavage position
[7] = RP of the P3-P1' tetramer contained in the substrate
[8] = individual phage substrate of the set of 1369 peptides, cleavage position marked by '-'
[9] = individual phage substrate of the set of 1369 peptides, dash in the sequence marks the cleavage position

Row | Substance | relative probability (RP) [1, 4] | Kobs [2, 5] [M⁻¹ s⁻¹] | Kobs [3, 6] [M⁻¹ s⁻¹] | relative probability (RP) [1, 7] | Kobs [2, 8] [M⁻¹ s⁻¹] | Kobs [3, 9] [M⁻¹ s⁻¹]
1 | TNPIM-LTASG | 15.4441 | 418.952 | 1071.29 |  |  | 
2 | LSHAW-LTASG | 27.1428 | 12792.1 | 56.119 |  |  | 
3 | GMAWG-LRTAS | 17.7408 | 8941.32 | 7815.03 |  |  | 
4 | GAWHN-MRTAS | 0 | 0 | 0 |  |  | 
5 | SGPLG-IRYTA |  |  |  | 33.936 | 9740.44 | 7815.03
6 | GSVWH-VRTAS | 0 | 231.616 | 0 |  |  | 
7 | YPFGS-LTASG |  |  |  | 21.9152 | 12792.1 | 355.093
8 | ISVNY-LTASG | 8.427 | 3637.04 | 323.705 |  |  | 
9 | PYPVP-FTASG |  |  |  | 31.1155 | 12792.1 | 12792.1
10 | SMGSH-LTASG | 4.2785 | 1154.21 | 0 |  |  | 
11 | HNANY-LTASG | 3.901 | 1610.61 | 0 |  |  | 
12 | VDIRM-LTASG |  |  |  | 12.7446 | 5889.62 | 3079.62
13 | GTPSA-LTTAS | 36.1873 | 12792.1 | 12792.1 |  |  | 
14 | SGPFF-LRKTA | 12.8224 | 1239.69 | 5090.5 |  |  | 
15 | WPMAK-LTASG |  |  |  | 21.5229 | 12792.1 | 451.441
16 | KSPSL-YTASG |  |  |  | 18.1013 | 4335.13 | 5090.5

Row | Substance | relative probability (RP) [1, 4] | Kobs [2, 5] [M⁻¹ s⁻¹] | Kobs [3, 6] [M⁻¹ s⁻¹] | relative probability (RP) [1, 7] | Kobs [2, 8] [M⁻¹ s⁻¹] | Kobs [3, 9] [M⁻¹ s⁻¹]
17 | GNPYK-LTASG |  |  |  | 15.5683 | 1196.62 | 8941.32
18 | SGVRW-YSNTA |  |  |  | 17.3102 | 874.197 | 5667.28
19 | GISFA-LTTAS | 0.5631 | 0 | 27.918 |  |  | 
20 | SGMAA-LKRTA |  |  |  | 32.6562 | 3741.87 | 0
21 | WVMES-LTASG |  |  |  | 8.775 | 1660.66 | 386.839
22 | TRLAH-VTASG | 11.7405 | 1660.66 | 0 |  |  | 
23 | SLPRP-LTASG | 34.3303 | 6396.07 | 10866.7 |  |  | 
24 | APYNH-LTASG |  |  |  | 3.693 | 1327.88 | 990.764
25 | GYPRN-IGTAS |  |  |  | 31.9621 | 8941.32 | 7386.83
26 | VSLAY-LTASG | 25.3422 | 12792.1 | 113.394 |  |  | 
27 | SGPVM-LRGTA | 25.0294 | 12792.1 | 12792.1 |  |  | 
28 | QGPWH-ITASG |  |  |  | 10.946 | 4205.91 | 12792.1
29 | QVSWA-WTASG | 0.05632 | 0 | 231.616 |  |  | 
30 | GSTRN-LITAS | 12.3403 | 1870.4 | 990.764 |  |  | 
31 | NTSAW-LTASG | 18.9346 | 6688.74 | 386.839 |  |  | 
32 | GSVMN-LTASG | 18.6016 | 3344.37 | 2409.72 |  |  | 
